1 compound from patent US20250352615A1, “COMPOSITIONS AND METHODS FOR THE MODULATION OF PIEZO1 AND TRPV4” (Duke University, priority 2021, published 2025) can be followed below.

Assay [1] concerns human stellate cells. As to the kind of experiment: Gene expression (RT-PCR) in Yoda1-treated human stellate cells. The format is cell-based. The protocol:
Mouse and human stellate cells were prepared and maintained in culture as previously described Swain et al., JCI Insight 7: e158288 (2022). Summarized here: Mouse and human PSCs were isolated using collagenase digestion. Modified Krebs Henseleit Buffer (KHB) solution (100 mL) was prepared as described previously in Romac et al., Nat. Commun. 9(1): 1715 (2018). Pancreatic tissue was digested with 2 mg of collagenase NB 8 (SERVA, catalog 17456) dissolved in 10 mL of modified KHB solution containing 1 mg soybean trypsin inhibitor (SBTI 1-S; Millipore Sigma, catalog T9003) and 20 mg BSA (Thermo Fisher Scientific; BP1600-100). Digestion solution (5 mL) was used to inflate the pancreas. Pancreas with 5 mL of digestion solution was incubated in a shaking water bath for 10 minutes at 37° C. The solution was then discarded. The pancreas tissue was cut into small pieces and digested with fresh 5 mL digestion buffer. Tissue was incubated in a shaking water bath for 40 minutes at 37° C. The cells were then separated from tissue by pipetting up-down with a 10 mL pipette and passed sequentially through a 70 μm and a 40 μm cell strainer. The filtrate was centrifuged at 150×g for 3 minutes at room temperature. The cells were washed with 10 mL Leibovitz's media (Thermo Fisher Scientific, catalog 11415-064), passed through a 20 μm filter, and centrifuged at 80 g for 3 minutes at room temperature. The supernate was removed, and isolated stellate cells were plated on a thin-layered Matrigel-coated glass bottom culture plate (MatTek, P35G-0-14-C). Before plating the cells, Matrigel solution (Corning, catalog 354234) at a ratio of 1.5:100 DMEM/F12 (Thermo Fisher Scientific, catalog 11330-032) was poured onto the culture plate and incubated for 2 hours at 37° C. to form a thin layer of Matrigel coating. Matrigel mixture was removed, and the plate was washed with PBS before cells were plated. Cell culture media, DMEM/F12 with 5% FBS was used for mouse stellate cells. Fresh, human pancreatic tissue (provided by Duke University's BioRepository & Precision Pathology Center under IRB approval) was digested with collagenase as described above with modifications. Collagenase (2.5 mg) in 10 mL of modified KHB solution was used for digestion. The digested tissues were filtered through a 100 μm cell strainer. The cells were cultured with DMEM/F12 with 10% FBS in a Matrigel-coated plate. After 24 hours, the cell media was replaced with fresh media to remove unattached and dead cells. After 2 days, cells were immunostained for GFAP and used for experiments. Perinuclear fat droplets were stained with BODIPY 493/503 (4,4-Difluoro-1,3,5,7,8-Pentamethyl-4-Bora-3a,4a-Diaza-s-Indacene; Invitrogen, catalog D3922) to confirm stellate cell quiescence.
Yoda 1 was resuspended in DMSO at 25 mM stock solution. […]

Assay [2] deals with T1, Piezo1 (Mus musculus, UniProt E2JF22).
T1 construct: endogenous in cells; host or cells: freshly isolated mouse pancreatic acini (WT = Piezo1 fl/fl on a C57BL/6J background)
The experiment in a line: Calcium imaging of Yoda1 (Piezo1)-mediated [Ca2+]i in pancreatic acini. The format is cell-based. As to conditions: pancreatic acini, bath calcium 2 mM, Yoda1 25 μM. Here is the method:
Mouse pancreatic acini were isolated using a standard collagenase digestion protocol. Isolated acini were plated on a thin-layered, Matrigel-coated, glass-bottom, culture plate (MatTek, P35G-0-14-C). Freshly isolated acini were used in each experiment.
Calcium imaging in pancreatic acini was performed as previously described. The chemicals used in calcium imaging experiments included the following: Yoda1 (Tocris; 5586), GsMTx4 (Abcam; ab141871), 5′,6′-EET (Santa Cruz Biotechnology; sc-221066), AA (Millipore Sigma; A3611), HC067047 (Tocris; 4100), GSK1016790A (Millipore Sigma; G0798), RN1734 (Tocris; 3746), AACOCF3 (Tocris; 1462), YM26734 (Tocris; 2522), GF109203X (Tocris; 0741), and CCK8 (Sigma-Aldrich).

The test system of assay [3] is pancreatic acini. The experiment in a line: Mitochondrial depolarization in pancreatic acini (TMRE). It counts as cell-based, mouse. As to conditions: Yoda1 50 μM. The protocol: Live-cell mitochondrial depolarization was analyzed using the mitochondrial labeling dye, TMRE. Isolated acini were plated on a thin-layered, Matrigel-coated, glass-bottom culture plate with DMEM/F12 and 10% FBS media and placed in a CO2 incubator for 1 hr at 37° C. After 1 hr, the acini were incubated with TMRE (200 nM) in the bath buffer containing 140 mM NaCl, 4.7 mM KCl, 2.0 CaCl2, 1 mM MgCl2, 10 mM HEPES, and 10 mM glucose (pH adjusted to 7.4 with NaOH) for 30 minutes. The TMRE dye was washed and replaced with fresh bath buffer. The images were captured with a Zeiss Axio observer Z1 microscope with MetaMorph software (Molecular Devices) at intervals of 600 ms. TMRE was excited at 540-600 nm and emission collected at 585-675 nm. Carbonyl cyanide 4-(trifluoromethoxy) phenylhydrazone (FCCP), which uncouples the oxidative phosphorylation process and depolarizes mitochondria, was used as a positive control. A maximum of 2 mitochondrial puncta were taken per acinar cell.

Assay [4] has as its system PLA2. The experiment in a line: PLA2 activity in living pancreatic acini (Bis-BODIPY FL C11-PC). The format is cell-based, mouse. As to conditions: Yoda1 25 μM. The protocol:
The fluorogenic PLA2 substrate (Bis-BODIPY FL C11-PC) (Thermo Fisher Scientific; B7701) was used to monitor PLA2 activity in living cells. The pancreatic acini were incubated with Bis-BODIPY FL C11-PC in HBSS buffer with 2 mM Ca^2+ for 30 minutes. HBSS buffer with 2 mM Ca^2+ was used during imaging. A Zeiss Axio observer Z1 with a high-sensitivity EMCCD camera with a ×40/0.75 EC-Plan-NeoFluar DIC objective was used to capture the Z-stack images with stack thickness of 4 μm at an interval of 10 seconds with 480 nm excitation and 525 nm emission filter. The captured images were analyzed with MetaMorph software (Molecular Devices).

[5] abbreviates: Yoda1, 24 hr, human stellate cells, preliminary.

Molecules are shown by their SMILES. A value given as a limit tells only on which side of the number the result lay.

T1 sequence (E2JF22 whole entry): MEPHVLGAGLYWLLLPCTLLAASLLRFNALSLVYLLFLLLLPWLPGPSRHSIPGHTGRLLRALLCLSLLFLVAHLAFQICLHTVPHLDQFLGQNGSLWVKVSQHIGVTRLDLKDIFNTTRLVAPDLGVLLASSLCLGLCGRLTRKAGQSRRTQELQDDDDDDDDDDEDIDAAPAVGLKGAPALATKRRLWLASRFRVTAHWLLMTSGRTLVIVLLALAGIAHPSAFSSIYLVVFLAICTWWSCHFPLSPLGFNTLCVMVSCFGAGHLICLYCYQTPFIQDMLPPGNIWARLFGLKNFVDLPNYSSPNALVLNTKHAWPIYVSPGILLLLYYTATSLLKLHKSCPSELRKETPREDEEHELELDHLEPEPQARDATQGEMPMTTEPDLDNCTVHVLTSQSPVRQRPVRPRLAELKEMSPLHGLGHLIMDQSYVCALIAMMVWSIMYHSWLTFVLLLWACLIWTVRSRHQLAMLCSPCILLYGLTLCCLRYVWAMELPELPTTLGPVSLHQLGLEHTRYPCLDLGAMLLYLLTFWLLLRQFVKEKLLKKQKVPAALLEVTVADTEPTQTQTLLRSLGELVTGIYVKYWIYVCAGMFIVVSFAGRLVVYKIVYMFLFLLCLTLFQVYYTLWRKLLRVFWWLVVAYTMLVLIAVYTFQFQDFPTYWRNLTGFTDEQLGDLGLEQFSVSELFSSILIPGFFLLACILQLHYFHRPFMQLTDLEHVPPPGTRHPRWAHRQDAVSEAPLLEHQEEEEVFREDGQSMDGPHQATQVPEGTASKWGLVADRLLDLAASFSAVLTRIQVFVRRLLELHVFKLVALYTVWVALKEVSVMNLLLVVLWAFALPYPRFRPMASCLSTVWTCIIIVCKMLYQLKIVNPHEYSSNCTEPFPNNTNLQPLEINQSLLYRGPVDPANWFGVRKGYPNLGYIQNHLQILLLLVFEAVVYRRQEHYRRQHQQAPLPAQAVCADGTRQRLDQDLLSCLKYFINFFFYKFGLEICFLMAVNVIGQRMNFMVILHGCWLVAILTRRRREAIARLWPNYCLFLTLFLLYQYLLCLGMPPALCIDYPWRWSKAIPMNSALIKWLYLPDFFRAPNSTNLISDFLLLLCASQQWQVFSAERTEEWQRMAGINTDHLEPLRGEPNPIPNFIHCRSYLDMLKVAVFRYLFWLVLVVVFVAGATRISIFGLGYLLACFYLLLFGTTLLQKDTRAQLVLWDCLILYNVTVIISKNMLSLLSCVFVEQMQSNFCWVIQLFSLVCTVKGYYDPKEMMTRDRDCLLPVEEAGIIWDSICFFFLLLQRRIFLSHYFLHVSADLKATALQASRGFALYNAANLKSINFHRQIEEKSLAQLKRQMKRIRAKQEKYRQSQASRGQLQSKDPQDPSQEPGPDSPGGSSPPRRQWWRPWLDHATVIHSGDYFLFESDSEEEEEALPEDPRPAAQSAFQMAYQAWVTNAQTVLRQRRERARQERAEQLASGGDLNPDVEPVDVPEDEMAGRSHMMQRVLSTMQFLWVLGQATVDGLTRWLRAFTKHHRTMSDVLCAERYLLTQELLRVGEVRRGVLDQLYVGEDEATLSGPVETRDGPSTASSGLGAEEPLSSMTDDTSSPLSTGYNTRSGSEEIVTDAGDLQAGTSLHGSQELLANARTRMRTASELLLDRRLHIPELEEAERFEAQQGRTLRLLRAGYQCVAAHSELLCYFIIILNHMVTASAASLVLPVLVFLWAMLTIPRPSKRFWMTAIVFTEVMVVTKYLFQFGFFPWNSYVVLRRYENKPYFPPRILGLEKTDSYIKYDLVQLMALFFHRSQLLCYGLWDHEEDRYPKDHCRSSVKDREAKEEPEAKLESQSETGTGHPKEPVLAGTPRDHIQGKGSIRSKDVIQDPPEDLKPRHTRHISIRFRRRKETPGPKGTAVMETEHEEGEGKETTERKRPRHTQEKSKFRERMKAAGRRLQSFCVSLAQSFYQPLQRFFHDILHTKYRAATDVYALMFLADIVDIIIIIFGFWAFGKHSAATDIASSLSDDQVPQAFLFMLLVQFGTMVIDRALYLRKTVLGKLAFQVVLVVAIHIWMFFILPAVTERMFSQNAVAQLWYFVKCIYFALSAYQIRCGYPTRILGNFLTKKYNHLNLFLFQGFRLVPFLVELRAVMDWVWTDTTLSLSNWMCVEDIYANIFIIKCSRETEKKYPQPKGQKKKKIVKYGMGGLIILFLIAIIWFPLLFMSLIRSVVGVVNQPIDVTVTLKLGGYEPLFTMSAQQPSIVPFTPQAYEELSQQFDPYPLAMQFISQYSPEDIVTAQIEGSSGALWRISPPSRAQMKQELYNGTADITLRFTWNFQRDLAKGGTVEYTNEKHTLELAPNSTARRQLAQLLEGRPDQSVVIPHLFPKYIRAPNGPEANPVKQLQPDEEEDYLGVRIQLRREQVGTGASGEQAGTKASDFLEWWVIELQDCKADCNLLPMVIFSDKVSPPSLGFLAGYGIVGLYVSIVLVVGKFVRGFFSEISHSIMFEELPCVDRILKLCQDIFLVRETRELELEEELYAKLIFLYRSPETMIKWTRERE

For the compound `Clc1cccc(Cl)c1CSc1nnc(-c2cnccn2)s1` [Yoda1], the “expression of fibronectin and IL-6” value in assay [1] (Yoda1 25 μM, 24 hr) was “increased expression of fibronectin and IL-6”. Further, in assay [1] (setting [5]), the “ACTA2 mRNA expression” value was “decreases ACTA2” and the “CD10 mRNA expression” value is “increases CD10 expression”. Further, in assay [1] (human PSCs, 24 hr, Yoda1 5 μm and 25 μM), the “TRPV4 mRNA levels” value is on record as “upregulates TRPV4 expression in PSCs”. In addition, in assay [2], the “[Ca2+]i response to Yoda1” value is listed as “initial transient Ca^2+ rise, followed by sustained intracellular calcium elevation”. In addition, in assay [3], the “mitochondrial depolarization in Piezo1aci-KO cells” value was “did not depolarize mitochondria” and the “rate of mitochondrial depolarization compared with CCK (10 nM)” value is “occurred at a higher rate than that induced with CCK”. Further, the “TMRE fluorescence intensity (mitochondrial depolarization)” value in assay [3] (WT acini) is “significantly decreased TMRE fluorescence intensity”. Further, the “time to mitochondrial depolarization after application” value in assay [3] (CCK 10 nM) is at most 3 min. Moreover, in assay [4], the “PLA2 activation in acini from Piezo1aci-KO mice” value was “did not stimulate PLA2 activation”, the “onset of PLA2 activation after application” value was at most 30 s and the “time to plateau of PLA2 activity” value worked out at 4 min. In addition, in assay [4] (WT acini), the “intensity of fluorogenic PLA2 substrate (PLA2 activity)” value is on record as “markedly increased the intensity of the fluorogenic PLA2 substrate”.
